# Patent publication US20240287044A1, “SALT OF SELECTIVE FGFR4 INHIBITOR, AND PREPARATION METHOD THEREFOR AND APPLICATION THEREOF” (ZHEJIANG HISUN PHARMACEUTICAL CO., LTD., priority 2021, published 2024)
# Several values for one entry are separate records, joined by “and”; a condition that tells them apart may be missing. Identical values can stand only once. Counter-ions that a name gives are not always drawn.
# Experiments:
# [1] = Pharmacokinetics of different salt forms (ICR mice); format: in vivo; conditions: 75 mg·kg^−1 single gavage, fasted, normal saline, plasma
# Method: After vortex oscillation, ultrasonication was carried out. If necessary, shearing and emulsification or grinding could be carried out until well mixed, to obtain an administration formulation with a concentration of 7.5 mg· mL^−1.
# (§1) Experimental animals were kept in animal rooms, which were well ventilated and equipped with air conditioning, and the temperature was maintained at 20-25° C., humidity at 40%-70%, and light and dark lighting for 12 hours each, and the experimental animals were allowed to eat and drink freely. After normal feeding for about 5 days, rats with good physical condition could be selected for this experiment after examination by a veterinary. Each rat was marked with a tail number.
# (§2) The detailed administration regimen of the ICR mice experiment is seen in Table 5. On the day before the experiment, all ICR mice were fasted overnight (equal to or more than 12 hours). On the day of the experiment, after weighing, the theoretical administration volume for each mouse was calculated according to the following formula. The administration formulation should be prepared on the day of the experiment, and the interval between preparation and administration should not exceed 2 hours. The actual administration amount of each rat and the collection time of the plasma sample should be recorded in detail in the corresponding table. ICR mice were allowed to restore eating 4 hours after administration, and were allowed to drink water freely during the experiment.
# Before and 0.25, 0.5, 1, 2, 4, 8, 10, 12 and 24 hours after administration, 0.15 mL blood was collected from fundus venous plexus and placed into anticoagulant tubes containing EDTA-K2.
# All whole blood samples were subjected to centrifugation for 10 minutes (5500 rpm), and then the plasma was separated and stored in a refrigerator at −30 to −10° C.
# [2] = Pharmacokinetic study on different salt forms (SD rats); format: in vivo; conditions: 20 mg·kg^−1 single gavage, fasted, 0.5% CMC-Na, plasma
# Method: After vortex oscillation, ultrasonication was carried out. If necessary, shearing and emulsification or grinding could be carried out until well mixed, to obtain an administration formulation with a concentration of 2 mg· mL^−1.
# as §1
# as §2, with “the animal” for “the ICR mice”, “Table 2.” for “Table 5.”, “all SD rats” for “all ICR mice”, “each rat” for “each mouse”, “table. SD rats” for “table. ICR mice”
# Before and 0.25, 0.5, 1, 2, 4, 8, 12 and 24 hours after administration, 0.15 mL blood was collected from jugular vein and placed into anticoagulant tubes containing EDTA-K2.
# All whole blood samples were subjected to centrifugation for 10 minutes (5500 rpm), and then the plasma was separated and stored in a refrigerator at −30° C. to −10° C.
# The corresponding pharmacokinetic parameters were calculated using the […] of Pharsight Phoenix 7.0, and the results are shown in Table 3 below.
# [3] = test system: Hep3B human liver carcinoma subcutaneous transplanted tumor; test: Subcutaneous transplantation model of Hep3B human liver carcinoma; format: in vivo, BALB/c nude mice; conditions: for anti-tumor activity (in words): Hep3B model, 50 mg/kg twice a day gavage 10 days
# Method: Preparation of administration formulation for gavage administration: sorafenib, free-base compounds as represented by formula (I) and its maleate salts, phosphate salts, hydrochloride salts, mesylate salts, and ethanesulfonate salts were accurately weighed respectively, and an appropriate volume of normal saline was added, and then vortex oscillation was performed until mixed well, and the administration formulation was prepared just before use.
# BALB/c nude mice, female, purchased from Jiangsu Jicui Pharmacom Biotechnology Co. Licence No.: SCXK (Su) 2019-0009, Animal Qualification Certificate No.: 202102418.
# After arrival, animals were required to be kept in the experimental environment for 7 days before starting the experiment. The experimental animals were kept in intelligent independent ventilation cages (IVC) with constant temperature and humidity. The temperature was maintained at 20-26° C. and the humidity was maintained at 40-70%. Under a light-dark cycle of 10 hours light/14 hours dark, the experimental animals were allowed to free access to food and water. The animals were labeled using ear tag.
# Establishment of subcutaneous tumor model of Hep3B cell: 0.2 mL of a cell suspension containing 3.5×10^6 Hep3B cells was inoculated subcutaneously on the right side of the back of female BALB/c nude mice aged over 6 weeks to establish a transplant tumor. The diameter of tumor was measured with a vernier caliper, and tumor volume was calculated using the following formula: tumor volume=0.5×a×b^2, where a and b represented the long and short diameter of the tumor, respectively. The tumor-bearing mice were randomly divided into 9 groups and administered according to the experimental design when the average tumor volume was at a range of 200-250 mm^3. Mice in each treatment group and solvent control group were subjected to orally intragastric administration for 10 days. The tumor volume of mice was measured twice weekly, and the body weight was weighed daily. The curative effect was assessed based on the relative tumor growth inhibition (TGI) rate (%), and safety was evaluated according to the change of body weight and mortality of animals.
# [4] = test system: hepatocellular carcinoma cells Hep3B; conditions: in vitro, read-out: IC50 value, inhibitory activity against Hep3B; cited from earlier work
# [5] = day 11 after administration, gavage 10 days, 50 mg/kg twice a day (based on formula (I)), sorafenib 30 mg/kg once a day
# [6] = day 11 after administration, gavage 10 days, 50 mg/kg twice a day (based on formula (I)), sorafenib 30 mg/kg once a day, listed as sorafenib
AUC0-t [2] [ng·h/mL],Cmax [2] [ng/mL],T1/2 [2] [h],Tmax [2] [h],SMILES,anti-tumor activity (in words) [3],"tumor volume (x ± S) [3, 5]",also measured
357.27,99.39,3.01,0.42,C=CC(=O)Nc1cc(N2CCN(CC)C3(CC3)C2)ccc1Nc1cc(N(C)C(=O)Nc2c(Cl)c(OC)cc(OC)c2Cl)ncn1 [mesylate salt],significant anti-tumor activity,93 mm^3 and 93 ± 32 mm^3,AUC0-t [1]: 8660 ng·h/mL; Cmax [1]: 3740 ng/mL; T1/2 [1]: 1.78 h; Tmax [1]: 0.250 h
–,–,–,–,"CNC(=O)c1cc(Oc2ccc(NC(=O)Nc3ccc(Cl)c(C(F)(F)F)c3)cc2)ccn1 [Sorafenib, reference compound]",–,1238 ± 199 mm^3,"T/C (%) relative tumor proliferation rate [3, 5]: 57.10%; TGI (%) relative tumor growth inhibition [3, 5]: 42.90%; relative tumor volume (x ± S) [3, 5]: 5.50 ± 0.22; TGI (%) relative tumor growth inhibition [3, 6]: 42.9%; tumor volume (x ± S) [3, 6]: 1238 mm^3"
194.55,52.74,–,4.00,"C=CC(=O)Nc1cc(N2CCN(CC)C3(CC3)C2)ccc1Nc1cc(N(C)C(=O)Nc2c(Cl)c(OC)cc(OC)c2Cl)ncn1 [Free base, N-(2-((6-(3-(2,6-dichloro-3,5-dimethoxyphenyl)-1-methylureido)pyrimidin-4-yl)amino)-5-(4-ethyl-4,7-diazaspiro[2.5]octane-7-yl)phenyl) acrylamide]",significant anti-tumor activity,–,"half-life ([2]; SD, rat, po, 20 mg/kg): 2.15 h; IC50 [4]: 19 nM; tumor volume (x ± S) ([3]; day 11 after administration, gavage 10 days, 50 mg/kg twice a day (based on formula (I)), sorafenib 30 mg/kg once a day, listed as compound as represented by formula): 314 ± 72 mm^3; tumor volume (x ± S) ([3]; day 11 after administration, gavage 10 days, 50 mg/kg twice a day (based on formula (I)), sorafenib 30 mg/kg once a day, listed as compound as represented by formula (I)): 314 mm^3"
410.81,141.81,2.37,1.50,C=CC(=O)Nc1cc(N2CCN(CC)C3(CC3)C2)ccc1Nc1cc(N(C)C(=O)Nc2c(Cl)c(OC)cc(OC)c2Cl)ncn1 [ethanesulfonate salt],significant anti-tumor activity,121 mm^3 and 121 ± 17 mm^3,"AUC0-t ([1]; ICR, mouse, po, 75 mg/kg, read-out: AUC0-t): 9660 ng·h/mL; Cmax ([1]; ICR, mouse, po, 75 mg/kg, read-out: Cmax): 4110 ng/mL; Tmax ([1]; ICR, mouse, po, 75 mg/kg, read-out: Tmax): 0.5 h"
